Test results: US7960352B2, “Anti-cancer activity of Androsace umbellata Merr. extract and contained triterpene saponin” (Sungkyunkwan University Foundation for Corporate …, priority 2005, dated 2011)
≈ marks a conversion by molar mass, not a printed value.

Assays:
[1] = test system: MCF7 (breast cancer cells); test: Inhibition of growth of tumor cells (SRB assay), MCF7; format: cell-based; conditions: 0.01-100 μg/mL, cultured 48 hours
Experimental: (§1) Cells were cultured in Dulbecco's modified Eagle's medium (hereunder referred to as DMEM) containing 5-10% fetal bovine serum and L-glutamine in an incubator of 37° C. and 5% CO2. Adherent cells were suspended using a trypsin-EDTA solution and isolated and collected for testing.
(§2) The cells were cultured on a 96-well plate, 5×10^3-10^4 cells each. After treating with the extract and the active ingredient at a concentration of 0, 0.01, 0.1, 1, 10 and 100 μg/mL, the cells were cultured for 48 hours. After culturing for […], the culture medium was removed from each well and 200 μL of 10% TCA (trichloroacetic acid) was added. The cells were fixed to the bottom of the plate by letting alone at 4° C. for 1 hour. After fixation, the plate was washed with distilled water for 5-6 times to remove the remaining TCA solution and then completely dried. To the plate was added 200 μL of a staining solution per each well, which was prepared by dissolving 0.4% SRB solution in 1% acetic acid solution. After 30 minutes' staining, the plate was washed with 1% acetic acid solution for 5-6 times to remove excess SRB. The plate was dried at room temperature and 200 μL of 10 mM trisma base solution (unbuffered) was added per each well. After 10 minutes' of shaking using a titer plate shaker to elute out the staining solution, light absorbance was measured at 540 nm using a microplate reader.

[2] = test system: HCT15 (colon cancer cells); test: Inhibition of growth of tumor cells (SRB assay), HCT15; format: cell-based; conditions: cultured 48 hours; for Inhibitory effect against growth of cancer cells IC50 HCT15: 0.01-100 μg/mL
Experimental: as §1, §2

mice [3] = test: Toxicity test, oral administration to mice; format: in vivo; conditions: orally, in corn oil, 1, 10 and 100 mg/kg, 7 days
Experimental: (§3) Toxicity test was performed as follows for the Androsace umbellata Merr. extract, fraction thereof and saxifragifolins B and D of the present invention.
(§4) Each of the Androsace umbellata Merr. extract, fraction thereof and saxifragifolins D and B was dissolved in 1% sodium carboxymethlycellulose and diluted with water. The solution was intraperitoneally injected to mice (10 per each group) at a dose of 0, 0.016, 0.8, 4, 20 and 100 mg/kg. […] No mouse died in the Androsace umbellata Merr. extract group. All the 10 mice of the 100 mg/kg Androsace umbellata Merr. fraction group died right after the administration and two died in the 20 mg/kg group. 3 mice died in each of the 20 mg/kg saxifragifolin B and saxifragifolin D groups. No more mice died until the 7th day. […] When the Androsace umbellata Merr. extract, fraction thereof and saxifragifolins D and B were dissolved in corn oil and orally administered at a dose of 1, 10 and 100 mg/kg, no mice died for 7 days.

[4] = test system: MDA-MB-231 (breast cancer cells); test: Inhibition of growth of tumor cells (SRB assay), MDA-MB-231; format: cell-based; conditions: MDA-MB-231 cells, 0.01-100 μg/mL, cultured 48 hours
Experimental: as §1, §2

mice [5] = test: Toxicity test, intraperitoneal injection to mice; format: in vivo; conditions: for Mice died: intraperitoneal, 20 mg/kg, 10 mice per group, observed 7 days; for Cause of the death of the mice: right after the intraperitoneal injection
Experimental: as §3, §4

A549 (lung cancer cells) = test: Inhibition of growth of tumor cells (SRB assay), A549; format: cell-based; conditions: 0.01-100 μg/mL, cultured 48 hours
Experimental: as §1, §2

[6] = test system: SK-OV-3 (uterine cancer cells); test: Inhibition of growth of tumor cells (SRB assay), SK-OV-3; format: cell-based; conditions: SK-OV-3 cells, 0.01-100 μg/mL, cultured 48 hours
Experimental: as §1, §2

[7] = test system: HeLa (uterine cancer cells); test: Inhibition of growth of tumor cells (SRB assay), HeLa; format: cell-based; conditions: 0.01-100 μg/mL, cultured 48 hours
Experimental: as §1, §2

SK-OV-3 (cancer cells) = test: Inhibition of growth of tumor cells (SRB assay), SK-OV-3; format: cell-based; conditions: Homo sapiens, SK-OV-3 cells, 0.01-100 μg/mL, cultured 48 hours, read-out: Inhibitory effect against growth of cancer cells IC50 SK-OV-3
Experimental: as §1, §2

Compound | Inhibitory effect against growth of cancer cells IC50 MCF7 [1] | Inhibitory effect against growth of cancer cells IC50 HCT15 [2] | Mice died (mice [3]) | Inhibitory effect against growth of cancer cells IC50 MDA-MB-231 [4] | Mice died (mice [5]) | Cause of the death of the mice (mice [5]) | Inhibitory effect against growth of cancer cells IC50 A549 (A549 (lung cancer cells)) | Inhibitory effect against growth of cancer cells IC50 SK-OV-3 [6] | Inhibitory effect against growth of cancer cells IC50 HeLa [7] | IC50 ([1]; Homo sapiens, read-out: Inhibitory effect against growth of cancer cells IC50 MCF7) | IC50 ([2]; Homo sapiens, HCT-15, 0.01-100 μg/mL, read-out: Inhibitory effect against growth of cancer cells IC50 HCT15) | IC50 ([4]; Homo sapiens, read-out: Inhibitory effect against growth of cancer cells IC50 MDA-MB-231) | IC50 (A549 (lung cancer cells); Homo sapiens, read-out: Inhibitory effect against growth of cancer cells IC50 A549) | IC50 (SK-OV-3 (cancer cells)) | IC50 ([7]; Homo sapiens, read-out: Inhibitory effect against growth of cancer cells IC50 HeLa)
cyclamiretin A 3-O-{β-D-xylopyranosyl-(1→2)-β-D-glucopyranosyl-(1→4)-β-D-glucopyranosyl-(1→2)-α-L-arabinopyranoside} [Saxifragifolin B] | 6.88 ± 0.13 µg/mL | 0.183 ± 0.17 µg/mL | no mice died | 3.02 ± 0.02 µg/mL | 3 mice | hemolysis of red blood cells | 0.036 ± 0.02 µg/mL | 8.39 ± 0.23 µg/mL | 1.22 ± 0.04 µg/mL | – | – | – | – | – | –
cyclamiretin A 3-O-{β-D-glucopyranosyl-(1→4)-β-D-glucopyranosyl-(1→2)-β-D-xylopyranosyl-(1→2)-β-D-glucopyranosyl-(1→4)-α-L-arabinopyranoside} [Saxifragifolin D] | 3.23 ± 0.10 µg/mL | 0.558 ± 0.24 µg/mL | no mice died | 1.32 ± 0.03 µg/mL | 3 mice | hemolysis of red blood cells | 0.016 ± 0.01 µg/mL | 6.36 ± 0.12 µg/mL | 0.98 ± 0.05 µg/mL | – | – | – | – | – | –
COc1cccc2c1C(=O)c1c(O)c3c(c(O)c1C2=O)C[C@@](O)(C(=O)CO)C[C@@H]3O[C@H]1C[C@H](N)[C@H](O)[C@H](C)O1 [Doxorubicin, reference compound] | – | – | – | – | – | – | – | – | – | 0.5 ± 0.02 µg/mL (≈ 0.92 µM) | 0.014 ± 0.02 µg/mL (≈ 0.0258 µM) | 0.02 ± 0.01 µg/mL (≈ 0.0368 µM) | 0.011 ± 0.01 µg/mL (≈ 0.0202 µM) | 0.77 ± 0.03 µg/mL (≈ 1.42 µM) | 0.21 ± 0.01 µg/mL (≈ 0.386 µM)
